Results taken from patent publication US20250163061A1 (Bala Therapeutics, Inc., priority 2021, published 2025).

Tests used:
recombinant MEN1 protein = recombinant MEN1 protein (Homo sapiens (Human), UniProt O00255); experiment: Primary fluorescence polarization assay of MEN1 activity inhibition (MEN1 / MLL4-43 peptide interaction); format: binding; details: MEN1 10 nM, fluorescein-labeled MLL4-43 peptide 0.5 nM
Method: Compound activity was determined using recombinant MEN1 protein (Creativebiomart, Cat #MEN1-35H) and a custom fluorescein-labeled MLL4-43 peptide (Eton Bioscience Inc.). Interaction between MEN1 and MLL4-43 in the presence of compounds was determined by fluorescence polarization assay using a Microplate Reader ClarioStar Plus. The reaction was carried out in assay buffer (50 mM TRIS-HCl pH 7.4-7.6, 50 mM NaCl, 1 mM DTT, 0.1 mg/ml BSA). The compounds were dispensed on a 384 well Diamond Well Plate (Axigen, Cat #P-384-120SQ-C-S) using the Biomek FX liquid handling system at 100× solutions of compounds in DMSO. 2×MEN1 mix (final concentration of MEN1 10 nM) was prepared in Assay buffer and 10 μl of mixture per well was added into 384 w white Reaction plate with NBS (Corning, Cat #4513). 10 μl of Assay buffer w/o MEN1 was used for negative control. Plates were centrifuged for 1 min at 100 g. Next step the Compounds were added to Reaction plate using Biomek station via following steps: 3 μl of 100× compounds (in DMSO) were mixed thoroughly with 27 μl Assay Buffer, then 2 μl of this mixture was added to Reaction plate with 10 μl of MEN1 mix. Plates were centrifuged for 1 min at 100 g and incubated for 20 min at room temperature. Next 8 μL of MLL4-43 peptide per well was added to final concentration of MLL 0.5 nM. Plates were incubated for 1 hour at room temperature. Then fluorescence polarization was measured using Microplate Reader.

MV4-11 = MV4-11 cellular growth inhibition assay (CellTiter-Glo); format: cell-based; details: Homo sapiens, 168 h, MV4-11 cells, 7 days of incubation
Method: (§1) HEK293 (Institute of Cytology Russian Academy of Science), MV4-11 (ATCC, CRL-9591), MOLM-13 (AcceGen, ABC-TC517S) were seeded at a density of 500 cells per well (HEK293) and 2000 cells per well (MV4-11, MOLM-13) in a 384-well clear bottom plate (Greiner Cat #781090) in 45 μl total volume of DMEM (PanEco, Cat #C420, Russia) or RPMI (PanEco, Cat #C330, Russia) with 10% FBS (HyClone Cat #SV30160.03). HEK293 were allowed to adhere overnight at 37° C., 5% CO2. 500× compounds solutions in DMSO (Sigma Cat #D2650) were prepared into Cmpnds plate (Diamond Well Plate, Axigen, Cat #P-384-120SQ-C-S) and DMSO only control was included. 1 μl of 500× compounds (Cmpnds plate) was added to 49 μl of culture medium into Dilution plate (Diamond Well Plate, Axigen, Cat #P-384-120SQ-C-S), mixed and then 5 μl of 10× compounds solutions were transferred to cells followed by centrifugation at 100 g for 1 min. Final DMSO concentration was 0.2%. After 3 days of incubation, 10 μl of 1× compounds were added to cells. After 7 days of incubation, 12 μl of CellTiter-Glo (Promega, CAT #G7572) were added to the cells, plate was centrifuged at 100 g for 1 min and luminescence signal was measured using Microplate Reader (CLARIOStar).

MOLM-13 = MOLM-13 cellular growth inhibition assay (CellTiter-Glo); format: cell-based; details: Homo sapiens, 168 h, MOLM-13 cells, 7 days of incubation
Method: as §1

[1] = HEK293 cellular growth inhibition assay (CellTiter-Glo); format: cell-based; details: human, HEK293 cells, 7 days of incubation
Method: as §1

Chain of recombinant MEN1 protein (O00255 whole entry): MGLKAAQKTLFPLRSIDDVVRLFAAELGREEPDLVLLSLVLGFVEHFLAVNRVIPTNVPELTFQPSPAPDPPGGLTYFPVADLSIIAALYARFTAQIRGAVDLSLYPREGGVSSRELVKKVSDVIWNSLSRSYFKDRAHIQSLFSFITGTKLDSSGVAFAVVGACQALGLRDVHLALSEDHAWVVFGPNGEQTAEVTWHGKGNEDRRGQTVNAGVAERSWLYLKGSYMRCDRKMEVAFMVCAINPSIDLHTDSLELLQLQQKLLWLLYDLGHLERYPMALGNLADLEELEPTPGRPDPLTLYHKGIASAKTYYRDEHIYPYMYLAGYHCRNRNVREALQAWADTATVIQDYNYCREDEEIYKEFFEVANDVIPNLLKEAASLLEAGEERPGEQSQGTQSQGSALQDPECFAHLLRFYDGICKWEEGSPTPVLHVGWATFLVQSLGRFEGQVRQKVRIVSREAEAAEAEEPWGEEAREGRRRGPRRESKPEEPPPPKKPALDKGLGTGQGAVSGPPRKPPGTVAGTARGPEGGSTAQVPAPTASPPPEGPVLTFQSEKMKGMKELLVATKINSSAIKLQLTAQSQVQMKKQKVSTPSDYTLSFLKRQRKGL

Cc1c(CN2CCC3(CC2)CN(c2ncnc4ccc(CC(F)(F)F)cc24)C3)ccc2c1cc(C#N)n2CC1CN(S(C)(=O)=O)CCO1 (centres unmarked) [Compound 9]
EC50 (recombinant MEN1 protein): 75 to 500 nM

Cc1c(CN2CCC3(CC2)CN(c2ncnc4ccc(CC(F)(F)F)cc24)C3)ccc2c1cc(C#N)n2CC1CNC(=O)N1 (centres unmarked) [Compound 6, 4-Methyl-1-[(2-oxoimidazolidin-4-yl)methyl]-5-({2-[6-(2,2,2-trifluoroethyl)quinazolin-4-yl]-2,7-diazaspiro[3.5]non-7-yl}methyl)-1H-indole-2-carbonitrile]
EC50 (recombinant MEN1 protein): 1000 to 5000 nM

CCS(=O)(=O)N1CCCN(C(C)Cn2c(C#N)cc3c(C)c(CN4CCC5(CC4)CN(c4ncnc6ccc(CC(F)(F)F)cc46)C5)ccc32)CC1 (centres unmarked) [Compound 53, 1-[2-(4-Ethylsulfonyl-1,4-diazepan-1-yl)propyl]-4-methyl-5-[[2-[6-(2,2,2-trifluoroethyl)quinazolin-4-yl]-2,7-diazaspiro[3.5]nonan-7-yl]methyl]indole-2-carbonitrile]
EC50 (recombinant MEN1 protein): ≤ 75 nM
CC50 (MV4-11): ≤ 100 nM
CC50 (MOLM-13): 100 to 500 nM
CC50 at 7 days [1]: 5000 to 10000 nM

Cc1c(CN2CCC3(CC2)CN(c2ncnc4ccc(CC(F)(F)F)cc24)C3)ccc2c1cc(C#N)n2C[C@@H]1CCC(=O)N[C@H]1c1ccccc1 [Compound 100, 4-Methyl-1-{[(2R,3S)-6-oxo-2-phenylpiperidin-3-yl]methyl}-5-({2-[6-(2,2,2-trifluoroethyl)quinazolin-4-yl]-2,7-diazaspiro[3.5]non-7-yl}methyl)-1H-indole-2-carbonitrile]
EC50 (recombinant MEN1 protein): 75 to 500 nM

Cc1c(CN2CCC3(CC2)CN(c2ncnc4ccc(CC(F)(F)F)cc24)C3)ccc2c1cc(C#N)n2CC1CN(CC(C)C)C(=O)CO1 (centres unmarked) [Compound 31, 1-[(4-Isobutyl-5-oxomorpholin-2-yl)methyl]-4-methyl-5-({2-[6-(2,2,2-trifluoroethyl)quinazolin-4-yl]-2,7-diazaspiro[3.5]non-7-yl}methyl)-1H-indole-2-carbonitrile]
EC50 (recombinant MEN1 protein): 75 to 500 nM

CCS(=O)(=O)N[C@H]1CC[C@H](Cn2c(C#N)cc3c(C)c(CN4CCC5(CC4)CN(c4ncnc6ccc(CC(F)(F)F)cc46)C5)ccc32)CC1 [Compound 41]
EC50 (recombinant MEN1 protein): 75 to 500 nM

Cc1c(CN2CCC3(CC2)CN(c2cnnc4ccc(CC(F)(F)F)cc24)C3)ccc2c1cc(C#N)n2CC(C)N1CCN(S(C)(=O)=O)CC1 (centres unmarked) [Compound 80, 4-Methyl-1-[2-(4-methylsulfonylpiperazin-1-yl)propyl]-5-[[2-[6-(2,2,2-trifluoroethyl)cinnolin-4-yl]-2,7-diazaspiro[3.5]nonan-7-yl]methyl]indole-2-carbonitrile]
EC50 (recombinant MEN1 protein): ≤ 75 nM
CC50 (MV4-11): 100 to 500 nM
CC50 (MOLM-13): 1000 to 5000 nM
CC50 at 7 days [1]: 5000 to 10000 nM

Cc1c(CN2CCC3(CC2)CN(c2ncnc4ccc(CC(F)(F)F)cc24)C3)ccc2c1cc(C#N)n2CC1CN(C)C(=O)CN1 (centres unmarked) [Compound 46, 4-methyl-1-[(4-methyl-5-oxo-piperazin-2-yl)methyl]-5-[[2-[6-(2,2,2-trifluoroethyl)quinazolin-4-yl]-2,7-diazaspiro[3.5]nonan-7-yl]methyl]indole-2-carbonitrile]
EC50 (recombinant MEN1 protein): 1000 to 5000 nM
